# Patent publication US20020115212A1, “Enchanced PKR expression and cytokine production” (priority 2000, published 2002)
# Assays:
# [1] = tested on: proinflammatory cytokines; assay: Induction of other proinflammatory cytokines by virus or poly I:C in the presence of 2-aminopurine; assay type: cell-based; settings: results not shown
# [2] = tested on: IFN-alpha production in Namalwa PKR++41.027 and WT Namalwa cells; assay: IFN-alpha production (ELISA) after PMA priming and Sendai virus or poly I:C induction in the presence of 2-aminopurine; assay type: cell-based, human; settings: 5 mM 2-aminopurine, 20 nM PMA 24 hr, Namalwa PKR++41.027 and WT cells
# Procedure: Parallel experiments were performed on duplicate cultures of the individual subclones of Namalwa PKR++41.027 cells and WT Namalwa cells. These cultures were also pretreated with 20 nM phorbol myristate acetate at a cell density 5.0×10^5 cells/ml, in 6 well plates for 24 hr followed by treatment with 500 HAU/ml Sendai virus or poly I:C (200 μg/ml) plus 10 μg/ml DEAE Dextran. In addition these cultures were also treated with the PKR inhibitor 5 mM 2-aminopurine (2AP; obtained from Aldrich Chemical Company). Culture supernatants from the Sendai virus-induced cells were removed at 24 hr, post-induction and culture supernatants from the Poly I:C-induced cells were removed at 72 hr and evaluated for IFN alpha production using ELISA (PBL Catalogue No. 41105 Human Interferon Alpha Multi-Species ELISA Kit).
# [3] = biological target: PKR (Homo sapiens, UniProt P19525); settings: stated as known; cited from earlier work
# PKR, sequence (P19525 whole entry): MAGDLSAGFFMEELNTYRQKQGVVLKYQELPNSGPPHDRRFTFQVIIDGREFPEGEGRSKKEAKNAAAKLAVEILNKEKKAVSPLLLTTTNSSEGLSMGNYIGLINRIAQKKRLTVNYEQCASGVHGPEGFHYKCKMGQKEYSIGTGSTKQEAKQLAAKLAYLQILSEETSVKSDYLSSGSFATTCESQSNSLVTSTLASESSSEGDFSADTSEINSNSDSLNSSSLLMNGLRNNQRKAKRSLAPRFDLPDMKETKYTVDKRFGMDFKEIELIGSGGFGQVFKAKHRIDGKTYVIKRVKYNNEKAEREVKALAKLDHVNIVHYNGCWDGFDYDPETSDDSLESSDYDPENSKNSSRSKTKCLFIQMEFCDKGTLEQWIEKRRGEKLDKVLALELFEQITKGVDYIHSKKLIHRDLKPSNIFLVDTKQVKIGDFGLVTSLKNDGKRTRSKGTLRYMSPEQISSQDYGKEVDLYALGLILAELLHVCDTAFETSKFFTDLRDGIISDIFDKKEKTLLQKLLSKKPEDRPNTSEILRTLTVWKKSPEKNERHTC
# [4] = tested on: IFN-alpha production in Namalwa PKR++41.027 and WT Namalwa cells; assay: IFN-alpha production (ELISA) after PMA priming and poly I:C induction; assay type: cell-based, human; settings: 20 nM PMA 24 hr, 200 μg/mL poly I:C plus 10 μg/mL DEAE Dextran, 72 hr
# Procedure: Cells from individual subclones of Namalwa PKR++41.027 cells and WT Namalwa cells were pretreated with 20 nM phorbol myristate acetate at a cell density 5.0×10^5 cells/ml, in 6 well plates for 24 hrs followed by treatment with 500 HAU/ml Sendai virus or 200 μg/mL poly I:C plus 10 μg/mL DEAE Dextran for an additional 72 hr to induce IFN expression. Culture supernatants from the Sendai virus-treated cells were removed at 24 hr and 48 hr post-induction and supernatants from the Poly I:C treated cells were removed at 72 hr. IFN-alpha production was measured in these cell culture supernates using ELISA (Human Interferon Alpha Multi-Species ELISA Kit obtained from PBL).
# FIG. 5 illustrates IFN-alpha production was enhanced following both Sendai virus and PolyI:C induction in Namalwa PKR++41.027 cells relative to IFN-alpha production by wild type Namalwa cells as shown in FIG. 5.
Compound,induction of other proinflammatory cytokines by virus or poly I:C [1],"IFN-alpha production following Sendai virus induction ([2]; 500 HAU/ml Sendai virus, supernatant at 24 hr)","IFN-alpha production following poly I:C induction ([2]; poly I:C 200 μg/ml plus 10 μg/ml DEAE Dextran, supernatant at 72 hr)",PKR kinase activity [3],IFN-alpha induction in Namalwa PKR++41.027 cells [4],IFN-alpha induction in parental wild type Namalwa cells [4]
Nc1ncc2[nH]cnc2n1 [2-aminopurine],inhibits,decreased,decreased,known inhibitor,–,–
poly I:C,–,–,–,–,capable of inducing IFN,absence of detectable IFN-alpha induction
